The numbers were not newly measured in patent US20250340540A1, “Crystal Forms Of HS378 And Preparation Method Therefor” (priority 2022, published 2025), which cites them from elsewhere.

The test system of the data set is novel coronavirus. The conditions noted are these: mouse, in vivo; cited from earlier work.

For the molecule `CC(C)(C)[C@H](NC(=O)C(F)(F)F)C(=O)N1C[C@H]2[C@@H]([C@H]1C(=O)N[C@H](C#N)C[C@@H]1CCNC1=O)C2(C)C` [HS378, (1R, 2S, 5S)-N-{(1S)-1-cyano-2-[(3S)-2-oxopyrrolidin-3-yl]-ethyl}-6,6-dimethyl-3-[3-methyl-N-(trifluoroacetyl)-L-valyl]-3-azabicyclo [3.1.0]hexane-2-carboxamide], the Oral activity entry is recorded as “Oral activity was demonstrated”.
